Reference: PubChem BioAssay AID248 (DTP/NCI, 2004)
Where “and” joins values, the source holds several entries; their conditions need not be identical. Identical values can stand only once. Toxic doses and inconclusive results are not listed. Rule as the data show it: active = T/C of 150% or more; inactive = T/C below 125%.

Test system: L1210 leukemia ip in BDF1 mice, survival T/C
Test: NCI In Vivo Anticancer Drug Screen. Data for tumor model L1210 Leukemia (intraperitoneal) in B6D2F1 (BDF1) mice
Conditions: endpoint: mean survival time, higher = longer survival
Summary of the method: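 Tumor cells were implanted, animals were treated, and survival was followed. The result divides the treated measurement by the vehicle-control measurement.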

[1] = dose: 50.0 mg/kg/injection, schedule: Q01DX001 (ip), vehicle: carboxymethylcellulose (CMC)
[2] = dose: 100.0 mg/kg/injection, schedule: Q01DX001 (ip), vehicle: saline
[3] = dose: 200.0 mg/kg/injection, schedule: Q01DX001 (ip), vehicle: saline
[4] = dose: 400.0 mg/kg/injection, schedule: Q01DX001 (ip), vehicle: saline
[5] = dose: 100.0 mg/kg/injection, schedule: Q01DX009 (ip), vehicle: saline with Tween-80
[6] = dose: 200.0 mg/kg/injection, schedule: Q01DX009 (ip), vehicle: saline with Tween-80
[7] = dose: 400.0 mg/kg/injection, schedule: Q01DX009 (ip), vehicle: saline with Tween-80
[8] = dose: 100.0 mg/kg/injection, schedule: Q01DX009 (ip), vehicle: saline
[9] = dose: 200.0 mg/kg/injection, schedule: Q01DX009 (ip), vehicle: saline
[10] = dose: 400.0 mg/kg/injection, schedule: Q01DX009 (ip), vehicle: saline
[11] = dose: 100.0 mg/kg/injection, schedule: Q04DX003 (ip), vehicle: saline with Tween-80
[12] = dose: 200.0 mg/kg/injection, schedule: Q04DX003 (ip), vehicle: saline with Tween-80
[13] = dose: 400.0 mg/kg/injection, schedule: Q04DX003 (ip), vehicle: saline with Tween-80
[14] = dose: 150.0 mg/kg/injection, schedule: Q01DX001 (ip), vehicle: saline
[15] = dose: 75.0 mg/kg/injection, schedule: Q01DX001 (ip), vehicle: saline
[16] = dose: 50.0 mg/kg/injection, schedule: Q01DX009 (ip), vehicle: saline

Measured: T/C

CC[Si](CC)(CC)N1CC1
inactive: dose: 12.5 mg/kg/injection, schedule: Q01DX001 (ip), vehicle: carboxymethylcellulose (CMC) 106 % of control | dose: 25.0 mg/kg/injection, schedule: Q01DX001 (ip), vehicle: carboxymethylcellulose (CMC) 92 % of control | [1] 92 % of control

Cc1cccc(N)[n+]1CCC(=O)O
inactive: dose: 75.0 mg/kg/injection, schedule: Q04DX003 (ip), vehicle: saline 101 % of control | dose: 150.0 mg/kg/injection, schedule: Q04DX003 (ip), vehicle: saline 94 % of control | dose: 300.0 mg/kg/injection, schedule: Q04DX003 (ip), vehicle: saline 95 % of control

O=C(Nc1cccc2ccccc12)Oc1ccc(Cl)cc1Cc1ccccc1
inactive: dose: 12.5 mg/kg/injection, schedule: Q04DX002 (ip), vehicle: Klucel (hydroxypropylcellulose) (HPC) 123 % of control | dose: 25.0 mg/kg/injection, schedule: Q04DX002 (ip), vehicle: Klucel (hydroxypropylcellulose) (HPC) 105 % of control | dose: 50.0 mg/kg/injection, schedule: Q04DX002 (ip), vehicle: Klucel (hydroxypropylcellulose) (HPC) 94 % of control | dose: 100.0 mg/kg/injection, schedule: Q04DX002 (ip), vehicle: Klucel (hydroxypropylcellulose) (HPC) 92 % of control | dose: 200.0 mg/kg/injection, schedule: Q04DX002 (ip), vehicle: Klucel (hydroxypropylcellulose) (HPC) 89 % of control

C[C@]1(O)CC[C@H]2[C@@H]3CC[C@@H]4C[C@H](O)CC[C@]4(C)[C@@]3(F)[C@@H](O)C[C@@]21C
inactive: dose: 50.0 mg/kg/injection, schedule: Q01DX Z (sc), vehicle: steriod suspending solution 107 % of control | dose: 250.0 mg/kg/injection, schedule: Q01DX Z (sc), vehicle: steriod suspending solution 101 % of control | dose: 500.0 mg/kg/injection, schedule: Q01DX Z (sc), vehicle: steriod suspending solution 95 % of control

CN1c2ccc(Br)c[c]2[Sn]([CH3])([CH3])[c]2cc(Br)ccc21
inactive: dose: 100.0 mg/kg/injection, schedule: Q01DX001 (ip), vehicle: other 96 % of control | dose: 200.0 mg/kg/injection, schedule: Q01DX001 (ip), vehicle: other 97 % of control | dose: 400.0 mg/kg/injection, schedule: Q01DX001 (ip), vehicle: other 92 % of control

C=CCSc1ccccc1Cl
inactive: [2] 100 % of control | [3] 103 % of control | [4] 103 % of control

NC1(N)Sc2nc3ccccc3nc2S1
inactive: dose: 100.0 mg/kg/injection, schedule: Q04DX002 (ip), vehicle: saline with Tween-80 101 % of control

CCOC(=O)CNC(=O)Nc1ccc(OC)cc1
inactive: [5] 100 % of control | [6] 93 % of control | [7] 100 % of control

O=S(=O)(O)CCCN1CCCCC1
inactive: [8] 107 % of control | [9] 112 % of control | [10] 98 % of control

CC(C)NC(=O)C1C2CCC(CC2)C1C(=O)NC(C)C (stereo not drawn)
inactive: [11] 96 % of control | [12] 86 % of control | [13] 86 % of control

CC(C)CC(CC(C)C)NCCOC(=O)c1ccc(N)cc1
inactive: dose: 75.0 mg/kg/injection, schedule: Q01DX001 (ip), vehicle: other 106 % of control | dose: 150.0 mg/kg/injection, schedule: Q01DX001 (ip), vehicle: other 103 % of control

OC(CCl)C(O)C(O)C(O)CCl (stereo not drawn)
inactive: dose: 44.0 mg/kg/injection, schedule: Q01DX001 (ip), vehicle: saline 103 % of control | dose: 66.0 mg/kg/injection, schedule: Q01DX001 (ip), vehicle: saline 103 % of control | dose: 100.0 mg/kg/injection, schedule: Q01DX001 (ip), vehicle: saline with Tween-80 95 % of control | [2] 103 % of control | [14] 96 % of control | dose: 200.0 mg/kg/injection, schedule: Q01DX001 (ip), vehicle: saline with Tween-80 92 % of control | [3] 101 % of control | dose: 400.0 mg/kg/injection, schedule: Q01DX001 (ip), vehicle: saline with Tween-80 89 % of control | [4] 97 % of control

CC(C)C(Cl)C(=O)O (stereo not drawn)
inactive: [15] 96 % of control | [14] 104 % of control

C(Cc1ccccc1)=C1SCCCS1
inactive: [11] 99 % of control | [12] 96 % of control | [13] 96 % of control

O=c1cc(I)[nH]c(=O)[nH]1
inactive: dose: 73.0 mg/kg/injection, schedule: Q01DX Z (ip), vehicle: methylcellulose (MC) 100 % of control | dose: 111.0 mg/kg/injection, schedule: Q01DX Z (ip), vehicle: methylcellulose (MC) 96 % of control | dose: 165.0 mg/kg/injection, schedule: Q01DX Z (ip), vehicle: methylcellulose (MC) 102 % of control | dose: 248.0 mg/kg/injection, schedule: Q01DX Z (ip), vehicle: methylcellulose (MC) 110 % of control

O=C(NC/C(Br)=C/Br)Oc1cccc2c1CCCC2
inactive: dose: 100.0 mg/kg/injection, schedule: Q04DX002 (ip), vehicle: other 94 % of control | dose: 200.0 mg/kg/injection, schedule: Q04DX002 (ip), vehicle: other 94 % of control | dose: 400.0 mg/kg/injection, schedule: Q04DX002 (ip), vehicle: other 91 % of control

ClC(Cl)(Cl)c1nccnc1Br
inactive: dose: 12.5 mg/kg/injection, schedule: Q01DX009 (ip), vehicle: Klucel (hydroxypropylcellulose) (HPC) 111 % of control | dose: 25.0 mg/kg/injection, schedule: Q01DX009 (ip), vehicle: Klucel (hydroxypropylcellulose) (HPC) 94 % of control | dose: 50.0 mg/kg/injection, schedule: Q01DX009 (ip), vehicle: Klucel (hydroxypropylcellulose) (HPC) 94 % of control and 104 % of control

CS(=O)(=O)Nc1nc2ccccc2[nH]1
inactive: [16] 96 % of control | [8] 93 % of control | [9] 86 % of control

CCCCCCCCCCCCCCCC(=O)N(c1ccc(N)cc1)C(C)CCCN(CC)CC (stereo not drawn)
inactive: [5] 100 % of control | [11] 98 % of control | [6] 100 % of control | [12] 97 % of control | [7] 100 % of control | [13] 90 % of control

O=C(NCCBr)C(F)(F)F
inactive: dose: 25.0 mg/kg/injection, schedule: Q01DX009 (ip), vehicle: saline 113 % of control | [16] 103 % of control | [2] 104 % of control | [8] 105 % of control | [3] 109 % of control | [4] 112 % of control

Cc1ccc(C(=O)C(C)(C)C)c(C)c1
inactive: [8] 97 % of control | [9] 97 % of control | [10] 93 % of control

ClCCCNCCCCl
inactive: [15] 101 % of control | [14] 97 % of control

N/C(=N\N=C\c1ccc(-c2ccccc2)cc1)N[N+](=O)[O-]
inactive: [1] 104 % of control | dose: 100.0 mg/kg/injection, schedule: Q01DX001 (ip), vehicle: carboxymethylcellulose (CMC) 100 % of control | dose: 200.0 mg/kg/injection, schedule: Q01DX001 (ip), vehicle: carboxymethylcellulose (CMC) 93 % of control

COc1cc2ccc3c4cc5c(cc4cnc3c2cc1OC)OCO5
inactive: [5] 102 % of control | [11] 89 % of control | [6] 98 % of control | [12] 87 % of control | [7] 106 % of control | [13] 89 % of control

COC(=O)C(C)C(O)c1ccc(C)cc1 (stereo not drawn)
inactive: dose: 50.0 mg/kg/injection, schedule: Q01DX009 (ip), vehicle: saline with Tween-80 93 % of control | [5] 93 % of control | [6] 93 % of control
